This passage reports IC50 and melting point results from US6972287B1, “Method of inhibiting amyloid protein aggregation and imaging amyloid deposits” (Pfizer Inc., priority 1999, dated 2005).

The structures appear in SMILES notation. Where “and” joins values, the source holds several entries; their conditions need not be identical. Equal entries are not always repeated.

Data set [1] addresses T1, Aβ(1-40) (Homo sapiens, UniProt P05067).
T1 construct: […]; purchased Bachem, Torrance, Calif
As to the kind of experiment: BASSR (Beta-Amyloid Self-Seeding Radioassay), inhibitors of self-seeded amyloid fibril growth. Type of data set: biochemical. The conditions noted are these: 30 μM soluble Aβ(1-40) + 125I-labeled Aβ(1-40), 37° C., 3 to 5 hours; replicate values; letter = synthetic lot; ppt = precipitate; V-shaped = inhibition followed by precipitation. How it is done: BASSR (Beta-Amyloid Self-Seeding Radioassay)
(§1) An assay for inhibitors of self-seeded amyloid fibril growth
Assay Buffer—50 mM sodium phosphate, pH 7.5, 100 mM NaCl, 0.02% NaN3, 1 M urea (filter and store at 4° C.).
(§2) Typically, the solution should be stored until no lag phase is seen in the assay.
^125I-labeled Aβ(1-40)—150K-350K cpm/μL in 100% acetonitrile—0.1% trifluoroacetic acid (TFA)—1% β-mercaptoethanol (aliquots stored at −20° C.). ^125I-labeled Aβ(1-40) can be made in accordance with the procedure set forth by H. LeVine, III in Neurobiol. Aging, 16, 755, (1995), which is hereby incorporated by reference, or this reagent may be purchased from Amersham, Arlington Heights, Ill.
The following are the amounts of the components of the reaction mixture sufficient for 50 assay wells:
• 1) Prepare reaction mixture above by mixing components and storing on ice. • 2) Pipet 14.5 μL of reaction mixture into each of 50 wells on a polypropylene U-bottom 96-well microtiter plate on ice. (Costar 3794). • 3) Add 1.7 μL of diluted compound to be tested to each well in a column of eight, including solvent control. Serial 3-fold dilutions from 1 mM (100 μM final) in assay buffer−urea=7 dilutions+zero. Each 96-well plate can therefore accommodate 11 samples+1 Congo Red control (0.039-5 μM final in 2-fold steps). • 4) Seal the plate with aluminum film (Beckman 538619) and incubate for 10 minutes on ice. • 5) Raise the temperature to 37° C. and incubate for 3 to 5 hours (depending on the lot of the peptide). • 6) Remove the aluminum film and add 200 μL/well of ice cold assay buffer with urea, collecting the radiolabeled fibrils by vacuum filtration through 0.2 μm pore size GVWP filters in 96-well plates (Millipore MAGV N22, Bedford, Mass.). Determine the radioactivity of the filters using standard methods well-known to those skilled in the art. BASST (Beta-Amyloid Self-Seeding, Thioflavin T)

In data set [2] the target is T1, Aβ(1-40). The data set can be described thus: BASST (Beta-Amyloid Self-Seeding, Thioflavin T), inhibitors of self-seeded amyloid fibril growth. Type of data set: biochemical. The conditions noted are these: 30 μM soluble Aβ(1-40), 37° C., 3 to 5 hours, thioflavin T fluorescence; replicate values; letter = synthetic lot; read-out: BASST (IC50 = μM). On the procedure: as §1
Assay Buffer—50 mM sodium phosphate, pH 7.5, 100 mM NaCl, 0.02% NaN3, 1 M urea (filter and store at 4° C.)
as §2
The following are the amounts of the components of the reaction mixture that result in each of the 50 assay wells:
• 1) Prepare the reaction mix above by mixing the components and storing on ice. • 2) Pipet 14.5 μL of reaction mixture into each of 50 wells of a polystyrene U-bottom 96-well microtiter plate (Corning 25881-96) on ice. • 3) Add 1.7 μL of diluted compound to be tested to each well in a column of eight, including solvent control. Serial 3-fold dilutions from 1 mM (100 μM final) in assay buffer−urea=7 dilutions+zero. Each 96-well plate can therefore accommodate 11 samples+1 Congo Red control (0.039-5 μM final in 2-fold steps). • 4) Seal the plate with aluminum film and incubate for 10 minutes on ice. • 5) Raise the temperature to 37° C. and incubate for 3 to 5 hours (depends on the lot of the peptide). • 6) Remove the aluminum film and add 250 μL/well of 5 μM thioflavin T (ThT) [T-3516, Sigma-Aldrich] in 50 mM glycine-NaOH, pH 8.5. Read fluorescence on a plate reader (ex=440 nm/20 nm; em=485 nm/20 nm) within 5 minutes. BAPA (Beta-Amyloid Peptide Aggregation)

The target in data set [3] is T2, Aβ (1-42) (Homo sapiens, UniProt P05067).
T2 construct: Required Aβ (1-42) (California Peptide) was dried from its hexafluoroisopropanol (HFIP) stock solution; purchased California Peptide
The data set can be described thus: BATYM assay (Aβ (1-42) aggregation, Thioflavin T fluorescence). Type of data set: biochemical. The note with it: Aβ 1-42 final concentration 100 μM, 37° C., 1 day, letter = synthetic lot. On the procedure: Required Aβ (1-42) (California Peptide) was dried from its hexafluoroisopropanol (HFIP) stock solution. The Aβ (1-42) was dissolved in dimethylsulfoxide (DMSO) and then mixed with phosphate buffered saline (PBS) (pH 7.4). The mixed Aβ (1-42) solution was filtered with a 0.2 μm Omnipore membrane syringe filter Millipore, Bedford, Mass.). The compound to be tested in DMSO (50 times concentrate) was put into each well (0.5 μL/well) of a 96-well plate. The Aβ (1-42) solution was added into each well (24.5 μL/well). The plate was centrifuged at 1,000 g for 5 minutes and incubated at 37° C. for 1 day (Aβ 1-42; final concentration 100 μM).
After incubation Thioflavin T (ThT) (30 μM) solution in glycine-NaOH buffer (pH 8.5, 50 mM) was added into each well (250 μL/well), fluorescence was measured (ex=440/20 nm, em=485/20 nm) using a fluorescence plate reader. The inhibitory activity was calculated as the reduction of fluorescence with the following formula: Inhibition (%)={(F(Aβ)−F(Aβ+compound)}/{F(Aβ)−[…]}×100
The IC50s were calculated by a curve fitting program using the following equation. The data were obtained from two different experiments in triplicate.
x=Concentration of tested compound (M),

For data set [4], the target named is T3, Aβ (1-40) peptide (Homo sapiens, UniProt P05067).
T3 construct: 10 μL 0.5 mg/mL Aβ (1-40) peptide in 20% HFIP
As to the kind of experiment: BAPA (Beta-Amyloid Peptide Aggregation, pH 6.0, filtration). Type of data set: biochemical. The conditions noted are these: Aβ (1-40) 33 μM, pH 6.0, 2 to 4 hours at room temperature; replicate values; letter = synthetic lot. On the procedure: Each 96-well plate can therefore accommodate 11 samples+1 Congo Red control (0.039-5 μM final in 2-fold steps). • 4) Seal the plate with aluminum film and incubate for 10 minutes on ice. • 5) Raise the temperature to 37° C. and incubate for 3 to 5 hours (depends on the lot of the peptide). • 6) Remove the aluminum film and add 250 μL/well of 5 μM thioflavin T (ThT) [T-3516, Sigma-Aldrich] in 50 mM glycine-NaOH, pH 8.5. […] The purpose of this assays is to provide a higher volume method of assaying the amount of beta amyloid aggregation using an endpoint assay based on filtration. In this assay, hexafluoroisopropanol (HFIP) is used to break down the initial amyloid peptide to a monomer state and use a concentration of 33 μM which is high enough so that aggregation will occur at pH 6.0 in several hours. Methods: […] Then, we incubate for 2 to 4 hours at room temperature. […] We wash the filter plate with 100 μL of the same phosphate buffer. Aggregation was detected on a Microbeta counter after impregnating the filters with Meltilex (1450-441) and is corrected for background.

T2 sequence (P05067 672-713 limits assumed): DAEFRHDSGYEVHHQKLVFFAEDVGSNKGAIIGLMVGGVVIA
T3 sequence (P05067 672-711 limits assumed): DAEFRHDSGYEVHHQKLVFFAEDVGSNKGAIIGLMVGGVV
T1 sequence (P05067 672-711 limits assumed): as above

In the case of `CCCN(CCC)c1ccc(CCCc2ccc(Nc3ccccc3C(=O)O)cc2)cc1` [Example 43, 2-{4-[3-(4-Dipropylaminophenyl)propyl]phenylamino}benzoic acid], the IC50 in data set [1] is more than 100 µM; in data set [2], 0.3 µM; in data set [3], 24.2 µM; in data set [4], 63 µM.
As for `CCCCN(CCCC)c1ccc(CCCc2ccc(Nc3ccccc3C(=O)O)cc2)cc1` [Example 44, 2-{4-[3-(4-Dibutylaminophenyl)propyl]phenylanino}benzoic acid], the IC50 in data set [1] was more than 100 µM; in data set [2], 1 µM; in data set [3], 26.5 µM; in data set [4] it was 52 µM.
On the same counts, the results for `CCCCN(CCCC)c1cccc(CCCc2ccc(Nc3ccccc3C(=O)O)cc2)c1` [Example 45, 2-{4-[3-(3-Dibutylaminophenyl)propyl]phenylamino}benzoic acid] are more than 100 µM, 1 µM, 21.5 µM and 32 µM.
Take `Clc1ccc(CCc2ccc(Nc3ccccc3-c3nnn[nH]3)cc2)cc1Cl` [Example 68, {4-[2-(3,4-Dichloro-phenyl)-ethyl]-phenyl}-[2-(1H-tetrazol-5-yl)phenyl]-amine]: the IC50 in data set [1] is more than 100 µM; in data set [2], 1 µM; in data set [3], more than 100 µM; in data set [4], 110 µM.
In turn, `O=C(O)c1ccccc1Nc1ccc(CCc2ccc(N3CC[C@@H]4CCCC[C@H]4C3)cc2)cc1` [Example 82, 2(4-{2-[(4aS,8aR)-4-(Octahydro-isoquinolin-2-yl)-phenyl]-ethyl}-phenylamino)-benzoic acid] came in with a melting point of 203 to 206 °C. Moreover, the IC50 in data set [1] was more than 100 µM. The IC50 in data set [2] is 2 µM and 300 nM (2×).
`O=C(O)c1ccccc1Nc1ccc(CCc2ccc(Cl)c(Cl)c2)cc1` [Example 117, 2-{4-[2-(3,4-Dichloro-phenyl)-ethyl]-phenylamino}-benzoic acid monosodium]: the IC50 in data set [1] is more than 100 µM; in data set [2] it was 3 µM; in data set [3], 61.3 µM; in data set [4], more than 100 µM.
Consider `O=C(O)c1ccccc1Nc1ccc(CCc2ccc(Nc3ccccc3C(=O)O)cc2)cc1` [Example 136, 2-{4-[2-(4-{2-Hydroxycarbonylphenylamino}phenyl)ethyl]-phenylamino}-benzoic acid], for which the IC50 in data set [1] is more than 100 µM; in data set [2], 3 µM; in data set [3] it was more than 100 µM; in data set [4] it was 53 µM.
On to `COc1cc(Nc2ccc(CCCc3ccc(Cl)c(Cl)c3)cc2)c([N+](=O)[O-])cc1C(=O)O` [Example 138, 4-{4-[3-(3,4-Dichloro-phenyl)propyl]-phenylamino}-2-methoxy-5-nitro-benzoic acid], for which the melting point fell in the range of 74 to 78 °C.
On the same count and under the same terms, the figure for `O=C(O)c1cc(F)ccc1Nc1ccc(CCCc2ccc(Cl)c(Cl)c2)cc1` [Example 139, 2-{4-[3-(3,4-Dichloro-phenyl)-propyl]-phenylamino}-5-fluoro-benzoic acid] is 122 to 123 °C.
On to `Nc1ccc(Nc2ccc(CCCCCc3ccc(Cl)c(Cl)c3)cc2)c(C(=O)O)c1` [Example 140, 5-Amino-2-{4-[5-(3,4-dichloro-phenyl)pentyl]-phenylamino}-benzoic acid], for which the melting point fell in the range of 182 to 184 °C.
For the molecule `O=C(NS(=O)(=O)C(F)(F)F)c1ccccc1Nc1ccc(CCCc2ccc(Cl)c(Cl)c2)cc1` [Example 141, N-(2-{4-[3-(3,4-Dichloro-phenyl)-propyl]-phenylamino}-benzoyl)-C,C,C,-trifluoro-methanesulfonamide], the IC50 was more than 100 µM in data set [1], 7 µM in data set [2], 56.7 µM in data set [3] and more than 50 µM in data set [4].
On the same counts, the results for `O=C(NS(=O)(=O)c1ccccc1)c1ccccc1Nc1ccc(CCCc2ccc(Cl)c(Cl)c2)cc1` [Example 142, N-(2-{4-[3-(3,4-Dichloro-phenyl)propyl]-phenylamino}-benzoyl)-benzenesulfonamide] are more than 100 µM, 2.1 µM, 26.9 µM and 55 µM.
On the same counts, the results for `O=C(O)c1cccc(C(F)(F)F)c1Nc1ccc(CCc2ccc(Cl)c(Cl)c2)cc1` [Example 146, 2-{4-[2-(3,4-Dichloro-phenyl)-ethyl]-phenylamino}-3-trifluoromethyl-benzoic acid] are more than 100 µM, 30 µM, more than 100 µM and more than 60 µM.
Take `CCCN(CCC)c1ccc(Nc2ccc(CCc3ccc(Cl)c(Cl)c3)cc2)c(C(=O)O)c1` [Example 149, 2-{4-[2-(3,4-Dichlorophenyl)-ethyl]-phenylamino}-5-dipropylamino-benzoic acid]: the IC50 was more than 100 µM in data set [1], more than 100 µM in data set [2], more than 100 µM in data set [3] and more than 60 µM in data set [4].
In the case of `CCCCN(CCCC)c1ccc(Nc2ccc(CCc3ccc(Cl)c(Cl)c3)cc2)c(C(=O)O)c1` [Example 150, 5-Dibutylamino-2-{4-[2-(3,4-dichloro-phenyl)-ethyl]-phenylamino}-benzoic acid], the IC50 in data set [1] was more than 100 µM; in data set [2], 10 µM; in data set [3], more than 100 µM; in data set [4], 76 µM.
`Nc1ccc(CCCc2ccc(Nc3ccccc3C(=O)O)cc2)cc1` [Example 159, 2-{4-[3-(4-Aminophenyl)propyl]phenylamino}benzoic acid] showed a melting point of 110 to 112 °C.

A word on the IC50: it is the point on the concentration scale where inhibition reaches its midpoint. By melting point is commonly meant the temperature of the solid-liquid transition.
